Assay results published in ChEMBL document CHEMBL1201862, “PubChem BioAssay data set” (2004).
Where “and” joins values, the source holds several entries; their conditions need not be identical. Identical values can stand only once.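 Exposure lasted 48 hours, with cells grown in 96-well plates and compounds tested at five concentrations. GI50 = concentration required for 50% inhibition of growth.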 Calls of active or inactive are those of the source. Cut-off read from the data, not from the text of the source: active = GI50 up to about 1.1 µM and inactive = higher.

Key:
Experiment in all cases: NCI tumour cell line growth inhibition, 48 h
HCT-116 = system: HCT-116
SN12C = system: SN12C
SF-539 = system: SF-539
U-251 = system: U-251
UACC-257 = system: UACC-257
SK-MEL-2 = system: SK-MEL-2
Malme-3M = system: Malme-3M
CAKI-1 = system: CAKI-1
OVCAR-8 = system: OVCAR-8
LXFL 529 = system: LXFL 529
COLO 205 = system: COLO 205
SK-MEL-5 = system: SK-MEL-5
M19-MEL = system: M19-MEL
RXF 393 = system: RXF 393
HOP-92 = system: HOP-92
SF-268 = system: SF-268
SNB-19 = system: SNB-19
SW-620 = system: SW-620
OVCAR-5 = system: OVCAR-5
HCT-15 = system: HCT-15
KM12 = system: KM12
OVCAR-4 = system: OVCAR-4
M14 = system: M14
DMS-273 = system: DMS-273
SK-OV-3 = system: SK-OV-3
OVCAR-3 = system: OVCAR-3
SNB-75 = system: SNB-75
SNB-78 = system: SNB-78
NCI-H226 = system: NCI-H226
ACHN = system: ACHN
HT-29 = system: HT-29
UO-31 = system: UO-31
A549 = system: A549
HOP-18 = system: HOP-18
HOP-62 = system: HOP-62
CCRF-CEM = system: CCRF-CEM
NCI-H23 = system: NCI-H23
RPMI-8226 = system: RPMI-8226
SK-MEL-28 = system: SK-MEL-28
HL-60 = system: HL-60
TK-10 = system: TK-10
DLD-1 = system: DLD-1
IGROV-1 = system: IGROV-1
NCI-H460 = system: NCI-H460
KM-20L2 = system: KM-20L2
XF498 = system: XF498
MOLT-4 = system: MOLT-4
786-0 = system: 786-0
K562 = system: K562
SF-295 = system: SF-295
DMS-114 = system: DMS-114
EKVX = system: EKVX
HCC 2998 = system: HCC 2998
A498 = system: A498
UACC-62 = system: UACC-62
LOX IMVI = system: LOX IMVI

COc1c(O)c2c3c(c(C)cc(O)c3c1O)C(=O)C(O)(C(C)(C)C(C)=O)C2=O (stereo unspecified)
GI50 (HCT-116): > 100 µM (inactive) | GI50 (SN12C): > 100 µM (inactive) and 82.4 µM (inactive) | GI50 (SF-539): > 100 µM (inactive) | GI50 (U-251): > 100 µM (inactive) | GI50 (UACC-257): > 100 µM (inactive) | GI50 (SK-MEL-2): > 100 µM (inactive) | GI50 (Malme-3M): > 100 µM (inactive) | GI50 (CAKI-1): > 100 µM (inactive) | GI50 (OVCAR-8): > 100 µM (inactive) | GI50 (LXFL 529): > 100 µM (inactive) | GI50 (COLO 205): > 100 µM (inactive) | GI50 (SK-MEL-5): 77.1 µM (inactive) | GI50 (M19-MEL): 14.7 µM (inactive) and 18.4 µM (inactive) | GI50 (RXF 393): > 100 µM (inactive) | GI50 (HOP-92): > 100 µM (inactive) | GI50 (SF-268): > 100 µM (inactive) | GI50 (SNB-19): > 100 µM (inactive) | GI50 (SW-620): > 100 µM (inactive) | GI50 (OVCAR-5): > 100 µM (inactive) | GI50 (HCT-15): > 100 µM | GI50 (KM12): > 100 µM (inactive) | GI50 (OVCAR-4): > 100 µM (inactive) | GI50 (M14): > 100 µM (inactive) | GI50 (DMS-273): > 100 µM (inactive) | GI50 (SK-OV-3): > 100 µM (inactive) | GI50 (OVCAR-3): > 100 µM (inactive) | GI50 (SNB-75): > 100 µM (inactive) and 61 µM (inactive) | GI50 (SNB-78): 71.8 µM (inactive) | GI50 (NCI-H226): 19.3 µM (inactive) | GI50 (ACHN): > 100 µM (inactive) | GI50 (HT-29): > 100 µM (inactive) | GI50 (UO-31): > 100 µM (inactive) | GI50 (A549): > 100 µM (inactive) | GI50 (HOP-18): > 100 µM (inactive) | GI50 (HOP-62): > 100 µM (inactive) | GI50 (CCRF-CEM): 61.9 µM (inactive) and 57 µM (inactive) | GI50 (NCI-H23): > 100 µM (inactive) | GI50 (RPMI-8226): > 100 µM (inactive) and 82.2 µM (inactive) | GI50 (SK-MEL-28): > 100 µM (inactive) | GI50 (HL-60): 51.4 µM (inactive) and 50.9 µM (inactive) | GI50 (TK-10): > 100 µM (inactive) | GI50 (DLD-1): > 100 µM (inactive) | GI50 (IGROV-1): > 100 µM (inactive) | GI50 (NCI-H460): > 100 µM (inactive) | GI50 (KM-20L2): > 100 µM (inactive) | GI50 (XF498): > 100 µM (inactive) | GI50 (MOLT-4): > 100 µM (inactive) | GI50 (786-0): > 100 µM (inactive)

CC1(O)CC2C(CC1SC1CC3C(CC1(C)O)C3(C)C)C2(C)C (stereo unspecified)
GI50 (HCT-116): 44.8 µM (inactive) | GI50 (K562): 30.5 µM (inactive) | GI50 (SN12C): 36.1 µM (inactive) | GI50 (SF-539): > 100 µM (inactive) | GI50 (U-251): 41.6 µM (inactive) | GI50 (UACC-257): 49 µM (inactive) | GI50 (SK-MEL-2): 40.1 µM (inactive) | GI50 (Malme-3M): 29.6 µM (inactive) | GI50 (OVCAR-8): 41.9 µM (inactive) | GI50 (LXFL 529): 52.2 µM (inactive) | GI50 (COLO 205): 35.5 µM (inactive) | GI50 (SK-MEL-5): 11.6 µM (inactive) | GI50 (M19-MEL): 24.9 µM (inactive) | GI50 (HOP-92): 36.2 µM (inactive) | GI50 (SF-268): > 100 µM (inactive) | GI50 (SF-295): 46 µM (inactive) | GI50 (OVCAR-5): 78.9 µM (inactive) | GI50 (HCT-15): 39.1 µM | GI50 (KM12): 46.8 µM (inactive) | GI50 (DMS-114): 48.5 µM (inactive) | GI50 (OVCAR-4): 21.7 µM (inactive) | GI50 (M14): 48.2 µM (inactive) | GI50 (DMS-273): 41.5 µM (inactive) | GI50 (SK-OV-3): 54.7 µM (inactive) | GI50 (OVCAR-3): 38.8 µM (inactive) | GI50 (SNB-75): 27.9 µM (inactive) | GI50 (SNB-78): 73.3 µM (inactive) | GI50 (NCI-H226): 65.6 µM (inactive) | GI50 (ACHN): 35 µM (inactive) | GI50 (HT-29): 39.6 µM (inactive) | GI50 (UO-31): 24 µM (inactive) | GI50 (A549): 50.8 µM (inactive) | GI50 (HOP-18): 35.2 µM (inactive) | GI50 (CCRF-CEM): 27 µM (inactive) | GI50 (NCI-H23): 41.7 µM (inactive) | GI50 (RPMI-8226): 41.9 µM (inactive) | GI50 (SK-MEL-28): > 100 µM (inactive) | GI50 (EKVX): 32.5 µM (inactive) | GI50 (HL-60): 22.9 µM (inactive) | GI50 (TK-10): 69.7 µM (inactive) | GI50 (DLD-1): 74.8 µM (inactive) | GI50 (IGROV-1): 45 µM (inactive) | GI50 (NCI-H460): 30.7 µM (inactive) | GI50 (HCC 2998): 33.6 µM (inactive) | GI50 (XF498): 35.1 µM (inactive) | GI50 (MOLT-4): 43.1 µM (inactive) | GI50 (786-0): 43.6 µM (inactive)

Cc1ccc(/C=C2\CCCC\C2=N\O)cc1
GI50 (HCT-116): 45.9 µM (inactive) | GI50 (K562): 41 µM (inactive) | GI50 (SN12C): 47 µM (inactive) | GI50 (SF-539): 88.3 µM (inactive) | GI50 (U-251): 60.1 µM (inactive) | GI50 (CAKI-1): 56.6 µM (inactive) | GI50 (A498): 37.7 µM (inactive) | GI50 (OVCAR-8): 59.3 µM (inactive) | GI50 (LXFL 529): 46.3 µM (inactive) | GI50 (COLO 205): 81.5 µM (inactive) | GI50 (SK-MEL-5): 35.1 µM (inactive) | GI50 (M19-MEL): 87.7 µM (inactive) | GI50 (UACC-62): > 100 µM (inactive) | GI50 (LOX IMVI): 58.7 µM (inactive) | GI50 (SF-268): 51.2 µM (inactive) | GI50 (SNB-19): 53 µM (inactive) | GI50 (SF-295): 74.3 µM (inactive) | GI50 (SW-620): > 100 µM (inactive) | GI50 (HCT-15): 44.6 µM | GI50 (OVCAR-4): 38.8 µM (inactive) | GI50 (M14): > 100 µM (inactive) | GI50 (DMS-273): 56.8 µM (inactive) | GI50 (SK-OV-3): > 100 µM (inactive) | GI50 (OVCAR-3): > 100 µM (inactive) | GI50 (SNB-75): 26.2 µM (inactive) | GI50 (SNB-78): 30.3 µM (inactive) | GI50 (ACHN): 37.8 µM (inactive) | GI50 (HT-29): 51.8 µM (inactive) | GI50 (UO-31): 26.9 µM (inactive) | GI50 (A549): 71.8 µM (inactive) | GI50 (HOP-18): 59.6 µM (inactive) | GI50 (HOP-62): > 100 µM (inactive) | GI50 (CCRF-CEM): 45.4 µM (inactive) | GI50 (NCI-H23): 47.3 µM (inactive) | GI50 (SK-MEL-28): > 100 µM (inactive) | GI50 (EKVX): 80.2 µM (inactive) | GI50 (HL-60): 12.9 µM (inactive) | GI50 (TK-10): > 100 µM (inactive) | GI50 (DLD-1): 41.9 µM (inactive) | GI50 (IGROV-1): 74.5 µM (inactive) | GI50 (NCI-H460): 54 µM (inactive) | GI50 (KM-20L2): 75.9 µM (inactive) | GI50 (HCC 2998): 19.9 µM (inactive) | GI50 (XF498): 31.3 µM (inactive) | GI50 (MOLT-4): > 10 µM (inactive) | GI50 (786-0): 48.5 µM (inactive)
